Assay results taken from US20140243401A1, “METHODS OF SCREENING COMPOUNDS THAT ARE CYTOTOXIC TO TUMOR CELLS AND METHODS OF TREATING TUMOR CELLS USING SUCH COMPOUND” (The Johns Hopkins University, priority 2010, published 2014).
≈ marks a conversion by molar mass, not a printed value.

How the values were obtained:
[1] = system: mitochondrial FAS; test: 14C-malonate incorporation into lipids of mitochondria isolated from MCF7 cells; assay type: biochemical, human; details: FIG. 2, vs vehicle
Procedure: Mammalian mitochondrial FAS activity may be determined in a variety of ways. For example, [14C]malonate may be added to isolated mitochondria, fatty acids are extracted, and then radioactivity is tested. (See Zhang et al., J. Bio. Chem. 278(41): 40067-40074, 2003; Mikolajczyk, J. and Brody, S., Eur. J. Biochem. 187: 431-437, 1990). The mitochondria are purified using methods known in the art. (See Qiagen's Qproteome Mitochondria Isolation Kit; Methods in Enzymology, Vol. 10, Chapter 11, 1967). To test the inhibition of mmFAS activity, a test compound is added to the reaction mixture. Therefore, a test compound may be screened according the methods described herein as follows: (i) isolating mitochondria; (ii) incubating mitochondria with [14C]malonate with and without a test compound; and (iii) determining the quantity of lipids and/or fatty acids produced. By comparing the amount of product in the presence of the test compound to the amount in its absence, the degree of inhibition can be determined.
Mitochondria from MCF7 cells were prepared following manufacturer's protocol (Mitochondria Isolation Kit, Sigma, Saint Louis, Mo.). Rat liver mitochondria were isolated by homogenization with a tissue homogenizer in H-medium (220 mM mannitol, 70 mM sucrose, 2 mM HEPES, and 0.5 g/L of fatty acid free bovine serum albumin, pH 7.4). […]

[2] = system: MCF7 human breast cancer cells; test: XTT cytotoxicity assay, MCF7; assay type: cell-based
Procedure: (§1) Cytotoxicity can be easily measured using XTT assays, which provide an indication of mitochondrial activity. The XTT assay is a non-radioactive alternative for the [^51Cr] release cytotoxicity assay. XTT is a tetrazolium salt that is reduced to a formazan dye only by metabolically active, viable cells. The reduction of XTT is measured spectrophotometrically as OD490-OD650. Thus, cells that are actively metabolizing will form reaction product when subjected to XTT measurement.
(§2) For this experiment, cells were cultured under standard culture conditions. MCF7 human breast cancer cells were cultured in DMEM containing 5 mM glucose medium with 10% fetal calf serum, 0.01 mg/ml insulin and 1% penicillin/streptomycin. To measure the cytotoxicity of specific compounds against cancer cells, 9×10^3 MCF7 cells were plated per well in 96-well plates. Following overnight culture, the compounds, dissolved in DMSO, were added to the wells in 1 μl volume at specified concentrations. Vehicle controls were run for each experiment. Each condition was run in triplicate. After 24 to 72 h of incubation, cells were incubated for 4 hours with the XTT reagent as per manufacturer's instructions (Cell Proliferation Kit II (XTT) Roche Diagnostics, New Jersey). Plates were read at OD490 on a PerkinElmer Victor 1420. Three wells containing the XTT reagent without cells served as the plate blank. XTT data were reported as OD490.
MCF7 human breast cancer cells were cultured in DMEM containing 1 mM or 5 mM glucose in the medium with 10% fetal calf serum, 0.01 mg/ml insulin and 1% penicillin/streptomycin. The cells were grown in two oxygen conditions, normoxia (21% 02) or hypoxia (1% 02). To measure the cytotoxicity of specific compounds against cancer cells, 9×10^3 MCF7 cells were plated per well in 96-well plates. Following overnight culture, the compounds, dissolved in DMSO, were added to the wells in 1 μl volume at specified concentrations. After 24 to 72 h of incubation, cells were incubated for 4 h with the XTT reagent as per manufacturer's instructions (Cell Proliferation Kit II (XTT) Roche Diagnostics, New Jersey). Plates were read at OD490 on a PerkinElmer Victor 1420. Three wells containing the XTT reagent without cells served as the plate blank. XTT data were reported as OD490Vehicle controls were run for each experiment. Each condition was run in triplicate.

[3] = system: Human (non-small cell) lung cancer cell lines; test: XTT cytotoxicity assay, human non-small cell lung cancer cell lines; assay type: cell-based; details: 4 human non-small cell lung cancer cell lines, read-out: LC50 (the source's name)
Procedure: as §1
as §2, with “After 24 to 72 h of incubation, cells were incubated for 4 hours with the XTT reagent as per manufacturer's instructions (Cell Proliferation Kit II (XTT) Roche Diagnostics, New Jersey).” left out, “Three wells containing the XTT reagent without cells served as the plate blank. XTT data were reported as OD490.” left out
(§3) Using the XTT assay, LC50 values for C31 were determined for numerous human cancer cell lines and human hepatocytes, as shown in the following table: […]

[4] = system: Human colon cancer cell line; test: XTT cytotoxicity assay, human colon cancer cell line; assay type: cell-based; details: 1 human colon cancer cell line, read-out: LC50 (the source's name)
Procedure: as §1
as §2, with “After 24 to 72 h of incubation, cells were incubated for 4 hours with the XTT reagent as per manufacturer's instructions (Cell Proliferation Kit II (XTT) Roche Diagnostics, New Jersey).” left out, “Three wells containing the XTT reagent without cells served as the plate blank. XTT data were reported as OD490.” left out
as §3

[5] = system: OVCAR3 human ovarian cancer xenograft; test: tumor xenograft size, OVCAR3; assay type: in vivo, Athymic Nude mice; details: Study 1129063207, OVCAR-3, oral b.i.d. 11 days, 50 mg/kg
Procedure: Xenograft studies were performed using various mmFAS inhibitors disclosed herein. Human cancer xenograft studies are known in the art. (See Pizer et al., Cancer Res. 56:1189-1193, 1996; Pizer et al., Cancer Res. 60: 213-218, 2000; Testa et al., Oncogene 24: 7455-7464, 2005).
In particular, C31 mouse efficacy studies were conducted in order to evaluate anti-neoplastic activity of C31 in vivo. Athymic Nude mice were implanted with HCT116 human colon, SKOV3 human ovarian or OVCAR3 human ovarian cancer cell lines and were treated when the grown tumor xenografts reached at least 150 to 200 mm^3.^1 ^1 Compounds were solubilized in TEP (80% polyethylene glycol (PEG) 400, 10% ethanol, 10% tween-80) in a volume of 50 μL.

In the case of `CCCCCCCCC1(C)SC(=O)C=C1OCC(=O)Nc1ccc(Cl)cc1` (stereo not drawn) [Compound C31], the “effect on 14C-malonate incorporation into lipids of isolated mitochondria” value [1] is reported as “inhibited the incorporation of malonate into lipids in a dose-dependent manner”, the “cytotoxicity (XTT)” value ([2]; MCF7, 1 mM or 5 mM glucose, 1% or 21% O2, FIG. 9) is reported as “increases if the cells are hypoglycemic and even more if the cells are hypoxic” and the “cytotoxicity / cell viability (XTT)” value ([2]; MCF7, standard culture, FIG. 4 A, B) is reported as “concentration-dependent cytotoxicity”. For the same molecule, the CC50 [3] was 4 to 8 µg/mL (≈ 9.76 to 19.5 µM), the CC50 [4] was 4 µg/mL (≈ 9.76 µM) and the “Average Tumor Size Endpoint (% Change)” value [5] was −59 % Change.
